Consider three compounds from ChEMBL document CHEMBL3045125, “Isolation and Insecticidal Activity of Three Acetogenins from Seeds of Pond Apple, Annona glabra L” (1991).

Structures are written as SMILES. The source made the active and inactive calls. The calls are words filed in the database; no cut-off is given here.

Assay [1] has as its system Henosepilachna vigintioctopunctata. As to the kind of experiment: Insecticidal activity against second-instar larvae of Henosepilachna vigintioctopunctata assessed as lethality at 10 mg/ml measured everyday for 1 week. The assay is classed as functional, organism-based.
The subject of assay [2] is Callosobruchus chinensis. As to the kind of experiment: Insecticidal activity against adult of Callosobruchus chinensis assessed as mortality at 0.5 ug/insect applied topically after 24 hr relative to control. The assay is classed as functional.
Assay [3] relates to Callosobruchus chinensis. The assay can be described thus: Insecticidal activity against adult of Callosobruchus chinensis assessed as mortality at 1 ug/insect applied topically after 24 hr relative to control. It counts as functional.
The subject of a further assay is Mamestra brassicae. The assay can be described thus: Insecticidal activity against third-instar larvae of Mamestra brassicae in cabbage leaf assessed as feeding deterrent and growth inhibition at 10 mg/ml after 2 days. It counts as functional, organism-based.
A further assay has as its system Plutella xylostella. As to the kind of experiment: Insecticidal activity against 2nd-instar larvae of Plutella xylostella (diamondback moth) in cabbage leaf assessed as lethality and growth inhibition at 0.1 mg/ml after 2 days. The assay is classed as functional, organism-based.
Another assay deals with Nephotettix cincticeps. The assay can be described thus: Insecticidal activity against 2nd-instar nymphs of Nephotettix cincticeps (green rice leafhopper) in rice seedlings assessed as lethality at 10 mg/ml after 1 week. It counts as functional, organism-based.
In assay [4] the test system is Callosobruchus chinensis. As to the kind of experiment: Insecticidal activity against adult of Callosobruchus chinensis assessed as mortality at 0.1 ug/insect applied topically after 24 hr relative to control. It counts as functional.
The subject of assay [5] is Callosobruchus chinensis. The assay can be described thus: Insecticidal activity against adult of Callosobruchus chinensis assessed as mortality at 5 ug/insect applied topically after 24 hr relative to control. It counts as functional.
The next assay has as its system Crocidolomia. As to the kind of experiment: Insecticidal activity against second-instar larvae of Crocidolomia binotalis in cabbage leaf assessed as growth inhibition at 10 mg/ml after 2 days. The assay is classed as functional, organism-based.
The test system of the next assay is Tetranychus urticae. As to the kind of experiment: Insecticidal activity against adult of Tetranychus urticae (two-spotted spider mite) in kidney bean leaf assessed as egg hatching ability after 1 week. The assay is classed as functional, organism-based.

Regarding `CCCCCC[C@H](O)CCC[C@H](O)[C@H]1CC[C@H]([C@H]2CC[C@H]([C@H](O)CCCCCCCCCCCCC3=C[C@H](C)OC3=O)O2)O1` [SQUAMOCIN], the result (in assay [1]; with Mamestra brassicae; in the assay with Plutella xylostella; in the assay on Nephotettix cincticeps; with Crocidolomia) was Active. Besides, the Activity is 20% in the assay on Callosobruchus chinensis [2], 29% with Callosobruchus chinensis [3], 0% in the assay with Callosobruchus chinensis [4] and 90% in the assay with Callosobruchus chinensis [5]. Besides, the outcome in the assay with Tetranychus urticae was inactive.

On to `CCCCCCCCCCC(O)C1CCC(C2CCC(C(O)CCCCCCCC[C@H](O)CC3=C[C@@H](C)OC3=O)O2)O1` (stereo partly drawn) [ASIMICIN], for which the Activity is listed as 60% with Callosobruchus chinensis [2], 85% in the assay on Callosobruchus chinensis [3], 15% with Callosobruchus chinensis [4] and 100% in the assay on Callosobruchus chinensis [5].

In the case of `CCCCCCCCCC[C@H](O)[C@H]1CC[C@H]([C@H]2CC[C@H]([C@H](O)CCCCCCCCCCCCC3=C[C@H](C)OC3=O)O2)O1` [BULLANIN], the Activity in the assay with Callosobruchus chinensis [2] is reported as 10%; in the assay on Callosobruchus chinensis [3], 25%; in the assay with Callosobruchus chinensis [4] it was 0%; in the assay on Callosobruchus chinensis [5] it was 90%.
